Measured values reported in patent US6770649B2, “1-[1-(hetero)aryl-1-perhydroxyalkylmethyl]-piperazine compounds, process for their preparation and pharmaceutical compositions containing them” (Solvay Pharmaceuticals GmbH, priority 2001, dated 2004).
Where two headings read alike, the source gives them in different places.

What was measured:
human NK-2 receptor = target: T1, human NK-2 receptor (Homo sapiens, UniProt P21452); assay: Binding power of the test substances to NK-2 receptors in vitro ([3H]-SR 48968 displacement, CHO cell membranes); settings: displacement of [3H]-SR 48968, 90 min incubation, average of at least three measurements, 10^-6 to 10^-10 mol/l, read-out: pKi, affinity to human NK-2 receptors (converted)
T1 construct: expressed in transfected cells; host or cells: CHO cells (membrane preparation)
T1 sequence (P21452 1-398): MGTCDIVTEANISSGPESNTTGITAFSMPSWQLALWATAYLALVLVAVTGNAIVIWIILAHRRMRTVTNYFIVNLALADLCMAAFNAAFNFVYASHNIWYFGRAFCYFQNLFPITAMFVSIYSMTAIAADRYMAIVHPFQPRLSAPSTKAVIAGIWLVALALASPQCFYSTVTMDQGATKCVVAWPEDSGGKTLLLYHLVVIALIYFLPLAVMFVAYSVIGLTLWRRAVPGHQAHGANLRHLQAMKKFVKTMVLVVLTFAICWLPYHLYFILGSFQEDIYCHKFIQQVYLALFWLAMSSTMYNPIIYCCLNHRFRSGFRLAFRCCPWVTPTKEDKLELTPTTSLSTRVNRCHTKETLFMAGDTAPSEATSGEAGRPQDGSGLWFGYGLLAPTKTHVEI
Description: 1. Determination of the Binding Power of the Test Substances to NK-2 Receptors in vitro
The affinity of the test substances to human NK-2 receptors was measured in vitro. The ability of the test substances to displace the selective NK-2 receptor antagonist SR 48968 (=saredutant) used as reference ligand from its corresponding bond was determined.
The receptor binding studies were carried out with radioactively marked [^3H]-SR 48968 (from Amersham) as ligand. For the binding test, different samples of a membrane preparation of CHO cells (=[…]), which express the human NK-2 receptor (for preparation, see N. P. Gerard et al., Journal of Biological Chemistry 265/33 (1990) 20455-20462), were incubated for 90 minutes (=min.) with a solution of the marked ligand, with the incubation mixtures containing no test substance or additions of different concentrations of test substance. Then in each case the membrane-bound ligands in the samples were separated from free ligands by filtration. The fraction remaining in the filter was washed several times with buffer solution, before its radioactivity was measured using a liquid scintillation counter. That concentration which effects half-maximum displacement of the bound reference ligand was determined as IC50 of the respective test substance. The inhibition constant (Ki value) of the test substance was calculated from the respective IC50 value, and was stated as the negative logarithmised value thereof (pKi).
For the compounds of Examples 1 to 39, the affinity to human NK-2 receptors was determined in each case by at least three measurements of the test substances in concentration series of 10^−6 to 10^−10 mol/l. If several measurements were performed, the average thereof was listed each time.

NK-2 receptors = target: T2, NK-2 receptors (Cavia porcellus, UniProt Q64077); assay: NK-2-receptor-antagonistic effectiveness in vivo in anaesthetised guinea pigs (NKA test stimulus); parameters: species or system guinea pig; settings: for ED50: guinea pig
T2 construct: the NK-2 receptors present in the gall-bladder preparations; from tissue; host or cells: Pirbright-White guinea pig: isolated gall-bladder (A2); anaesthetised whole animal (A3)
T2 sequence (Q64077 1-402): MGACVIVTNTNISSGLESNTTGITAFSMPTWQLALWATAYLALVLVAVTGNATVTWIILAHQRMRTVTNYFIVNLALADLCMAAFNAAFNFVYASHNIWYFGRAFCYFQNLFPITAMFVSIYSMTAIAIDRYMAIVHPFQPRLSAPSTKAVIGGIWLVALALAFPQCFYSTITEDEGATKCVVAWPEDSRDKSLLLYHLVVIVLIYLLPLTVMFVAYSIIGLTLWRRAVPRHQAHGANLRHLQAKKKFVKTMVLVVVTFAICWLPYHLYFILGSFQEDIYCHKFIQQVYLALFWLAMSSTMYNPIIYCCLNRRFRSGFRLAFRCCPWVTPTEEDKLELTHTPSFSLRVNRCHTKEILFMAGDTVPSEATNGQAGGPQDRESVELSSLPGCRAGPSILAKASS
From the text: 3. Determination of the NK-2-receptor-antagonistic Effectiveness of the Test Substances in vivo
The NK-2- and NK-1-antagonistic activities of the test substances were investigated in anaesthetised guinea pigs in each case after intravenous (=i.v.) and oral (=p.o.) administration in vivio. With the present test model it is possible to detect both NK-2-antagonistic effects in three different organ systems (respiratory tracts, colon and circulation) and NK-1-antagonistic effects (rapid drop in blood pressure) in an animal simultaneously.
Pirbright-White guinea pigs of a body weight of 500-700 g were anaesthetised with ketamine/xylazine (67/13 mg/kg subcutaneously, initial dose, further doses administered as required). The animals were provided with an intravenous catheter in order to administer the substance and an intra-arterial catheter to measure the blood pressure. The animals were artificially ventilated via a tracheal cannula and the respiratory pressure was recorded by means of a pressure transducer. A balloon was introduced into the distal colon of the animals for manometric recording of colon motility by means of a pressure transducer. Blood pressure, heart rate, respiratory pressure and colonic pressure were measured continuously for each animal and plotted on a recorder and by means of a digital data-processing system. Neurokinin A (=NKA; 200 pmol/animal) was administered i.v. as a bolus as a test stimulus to stimulate the NK-1- and the NK-2 receptors. An addition of NKA of this type results in a great increase in respiratory pressure (bronchoconstriction) and colonic pressure, and in a biphasic drop in blood pressure. The first phase of hypotension (=phase of maximum hypotension within the first minute after administration of NKA) is mediated via NK-1 receptors, since they can be blocked completely by specific NK-1 receptor antagonists. The second phase of delayed hypotension (=phase of maximum hypotension after 2-5 min.) on the other hand is mediated via NK-2 receptors, since they can be blocked by specific NK-2 receptor antagonists. The doses of the test substances are given as ED50 values which each result in a response to the NKA test stimulus which is reduced to 50% of the initial value, as characteristic variables for the individual measurement parameters bronchoconstriction, colonic pressure and change in blood pressure mediated by NK-1 or NK-2.
The antagonistic effects of the test substances were first investigated in cumulative form, the time of the NKA test stimulus being 1 min. after the administration of the respective doses of the test substances had ended. These ED50 values obtained from cumulative dose effect curves are plotted in Table 2 below. In order additionally to detect the variation over time of the antagonistic effects of the test substances, the action of the NKA test stimulus was determined at different times (1, 30, 60, 90, 120, 150 and 180 min.) after administration of the test substances.

SMILES	Ki (human NK-2 receptor) [nM]	other results
CN(CC(CCN1CCN(C(c2ccsc2)C(O)CO)CC1)c1ccc(Cl)c(Cl)c1)C(=O)c1ccccc1 (stereo not drawn) [Example 18]	≤ 10	
CN(C[C@@H](CCN1CCN(C(c2ccco2)[C@H]2COC(=S)O2)CC1)c1ccc(Cl)c(Cl)c1)C(=O)c1ccccc1 (stereo partly drawn) [Example 39]	≤ 1	
CN(C[C@@H](CCN1CCN(C(c2ccsc2)[C@H](O)CO)CC1)c1ccc(Cl)c(Cl)c1)C(=O)c1ccccc1 (stereo partly drawn) [Example 5]	≤ 1	NK-2-receptor-antagonistic activity of colon motility, late drop in blood pressure and respiratory resistance (in words) (NK-2 receptors; cumulative administration i.v., antagonism detected 1 min. after administration had ended): marked NK-2-receptor-antagonistic activity; ED50 (NK-2 receptors; iv, cumulative dosing, NKA stimulus 1 min. after administration, NK-2-mediated late drop in blood pressure, read-out: ED50 Blood pressure, i.v. after 1 min. (cumulative)): 0.13 µmol/kg; ED50 (NK-2 receptors; iv, cumulative dosing, NKA stimulus 1 min. after administration, respiratory resistance (bronchoconstriction), read-out: ED50 Respiratory resistance, i.v. after 1 min. (cumulative)): 0.106 µmol/kg; ED50 (NK-2 receptors; iv, cumulative dosing, NKA stimulus (200 pmol/animal i.v.) 1 min. after administration, colonic pressure, read-out: ED50 Colonic pressure, i.v. after 1 min. (cumulative)): 0.041 µmol/kg; ED50 (NK-2 receptors; iv, from AUC of antagonistic effect over 120 min after administration, colonic pressure, read-out: ED50 Colonic pressure, i.v. AUC over 120 min): 0.014 µmol/kg; ED50 (NK-2 receptors; iv, from AUC over 120 min after administration, NK-2-mediated drop in blood pressure, read-out: ED50 Blood pressure, i.v. AUC over 120 min): 0.004 µmol/kg; ED50 (NK-2 receptors; iv, from AUC over 120 min after administration, respiratory resistance, read-out: ED50 Respiratory resistance, i.v. AUC over 120 min): 0.008 µmol/kg; ED50 (NK-2 receptors; po, from AUC over 180 min after administration, NK-2-mediated drop in blood pressure, read-out: ED50 Blood pressure, p.o. AUC over 180 min.): 7.6 µmol/kg; ED50 (NK-2 receptors; po, from AUC over 180 min after administration, colonic pressure, read-out: ED50 Colonic pressure, p.o. AUC over 180 min.): 3.4 µmol/kg; ED50 (NK-2 receptors; po, from AUC over 180 min after administration, respiratory resistance, read-out: ED50 Respiratory resistance, p.o. AUC over 180 min.): 2.7 µmol/kg
CN(C[C@@H](CCN1CCN(C(c2ccco2)[C@H]2COC(=O)O2)CC1)c1ccc(Cl)c(Cl)c1)C(=O)c1ccccc1 (stereo partly drawn) [Example 4, N-[((2S)-2-(3,4)-dichlorophenyl)-4-(4-{2-furyl[(4S)-2-oxo-1,3-dioxolan-4-yl]methyl}-1-piperazinyl)butyl]-N-methylbenzamide]	≤ 1	
CN(CC(CCN1CCN(C(c2ccsc2)[C@@H](O)CO)CC1)c1ccc(Cl)c(Cl)c1)C(=O)c1ccccc1 (mixture of isomers) [Example 11]	≤ 10	
CN(CC(CCN1CCN(C(c2cccs2)C(O)CO)CC1)c1ccc(Cl)c(Cl)c1)C(=O)c1ccccc1 (stereo not drawn) [Example 22]	≤ 10	
CN(CC(CCN1CCN(C(c2ccsc2)[C@H](O)CO)CC1)c1ccc(Cl)c(Cl)c1)C(=O)c1ccccc1 (mixture of isomers) [Example 8]	≤ 10	
CN(CC(CCN1CCN(C(CO)c2ccsc2)CC1)c1ccc(Cl)c(Cl)c1)C(=O)c1ccccc1 (stereo not drawn) [Example 26]	≤ 10	

Continued, in another order:

Ki (human NK-2 receptor) [nM]	SMILES	other results
≤ 10	CN(CC(CCN1CCN(C(c2ccsc2)[C@@H](O)[C@@H](O)[C@@H](O)CO)CC1)c1ccc(Cl)c(Cl)c1)C(=O)c1ccccc1 (mixture of isomers) [Example 27]	
≤ 10	CN(CC(CCN1CCN(C(c2ccsc2)[C@@H](O)[C@@H](O)[C@H](O)[C@H](O)CO)CC1)c1ccc(Cl)c(Cl)c1)C(=O)c1ccccc1 (mixture of isomers) [Example 21]	
≤ 10	CN(C[C@@H](CCN1CCN(C(c2ccco2)[C@H](O)[C@@H](O)[C@H](O)CO)CC1)c1ccc(Cl)c(Cl)c1)C(=O)c1ccccc1 (stereo partly drawn) [Example 10, N-((2S)-2-(3,4-dichlorophenyl)-4-{4[(2S,3R,4R)-2,3,4,5-tetrahydroxy-1-(2-furyl)pentyl]-1-piperazinyl}-butyl)-N-methylbenzamide]	
≤ 10	CN(CC(CCN1CCN(C(c2ccsc2)[C@H](O)[C@@H](O)CO)CC1)c1ccc(Cl)c(Cl)c1)C(=O)c1ccccc1 (mixture of isomers) [Example 16]	
≤ 10	CN(CC(CCN1CCN(C(c2ccsc2)[C@H](O)[C@@H](O)[C@H](O)[C@H](O)CO)CC1)c1ccc(Cl)c(Cl)c1)C(=O)c1ccccc1 (mixture of isomers) [Example 23]	
≤ 10	CN(CC(CCN1CCN(C(c2cccs2)[C@@H](O)[C@H](O)[C@H](O)CO)CC1)c1ccc(Cl)c(Cl)c1)C(=O)c1ccccc1 (mixture of isomers) [Example 19]	
≤ 10	CN(CC(CCN1CCN(C(c2cccs2)[C@H](O)[C@@H](O)[C@H](O)CO)CC1)c1ccc(Cl)c(Cl)c1)C(=O)c1ccccc1 (mixture of isomers) [Example 24]	
≤ 1	CN(C[C@@H](CCN1CCN(C(c2ccco2)[C@H](O)CO)CC1)c1ccc(Cl)c(Cl)c1)C(=O)c1ccccc1 (stereo partly drawn) [Example 2, N-((2S)-2-(3,4-dichlorophenyl)-4-{4[(2S)-2,3-dihydroxy-1-(2-furyl)propyl]-1-piperazinyl}-butyl)-N-methylbenzamide]	
≤ 10	CN(CC(CCN1CCN(C(c2ccsc2)[C@@H](O)[C@H](O)[C@@H](O)[C@@H](O)CO)CC1)c1ccc(Cl)c(Cl)c1)C(=O)c1ccccc1 (mixture of isomers) [Example 20]	
≤ 1	CN(C[C@@H](CCN1CCN(C(c2ccoc2)[C@H](O)CO)CC1)c1ccc(Cl)c(Cl)c1)C(=O)c1ccccc1 (stereo partly drawn) [Example 6, N-((2S)-2-(3,4-dichlorophenyl)-4-{4[(2S)-2,3-dihydroxy-1-(3-furyl)propyl]-1-piperazinyl}-butyl)-N-methylbenzamide]	
≤ 10	CN(CC(CCN1CCN(C(c2ccccc2)[C@H](O)[C@@H](O)[C@H](O)CO)CC1)c1ccc(Cl)c(Cl)c1)C(=O)c1ccccc1 (mixture of isomers) [Example 25]	
≤ 10	CN(C[C@@H](CCN1CCN(C(c2ccsc2)[C@@H](O)[C@H](O)[C@@H](O)CO)CC1)c1ccc(Cl)c(Cl)c1)C(=O)c1ccccc1 (stereo partly drawn) [Example 12, N-((2S)-2-(3,4-dichlorophenyl)-4-{4[(2R,3S,4S)-2,3,4,5-tetrahydroxy-1-(3-thienyl)pentyl]-1-piperazinyl}butyl)-N-methylbenzamide]	
